Test results published in patent publication US4695589A, “Alpha-(aminoalkyl-4-hydroxy-3-(alkylthio)benzenemethanols” (Sterling Drug Inc., priority 1983, dated 1987).
Where a name gives a salt, the structure may show the parent alone. Read-outs that look alike come from different tables or passages of the source.

Columns and labels:
[1] = system: hind limb vasculature of the anesthetized dog; assay: Vasodilator activity, dog-leg perfusion; format: in vivo; conditions: approximate intraarterial dose causing 50% reduction in perfusion pressure in hind limb; for ED50: Canis lupus familiaris, read-out: Vasodilator Activity Dog-Leg Perfusion AED50
Source text: (§1) Vasodilator activity was judged on the basis of observed reduction in perfusion pressure in the hind limb vasculature of the anesthetized dog determined according to the procedure described by Jandhyala et al., European J. Pharm. 17, 357 (1972), and also on the basis of percent reduction in perfusion pressure as measured in the isolated rabbit ear artery according to the method described by De LaLande et al., Aust. J. Exp. Biol. Med. Sci. 43, 639 (1965).
^c AED50 =approximate intraarterial dose required to cause a 50%
reduction in perfusion pressure in the hind limb of the anesthetized dog.

[2] = system: heart rate increase elicited by isoproterenol in the pentobarbitalized dog; assay: β-adrenergic blocking activity in the pentobarbitalized dog; format: in vivo; conditions: for ED50 / inhibition at 0.1 mg/kg / inhibition at 1 mg/kg: Canis lupus familiaris; for ED50 / Adrenergic Activity Dog β-blockade AED50: approximate intravenous dose causing 50% inhibition of isoproterenol-elicited heart rate increase; for ED50: read-out: Adrenergic Activity Dog β-blockade AED50; for inhibition at 0.1 mg/kg: 0.1 mg./kg. intravenous; for inhibition at 0.1 mg/kg / inhibition at 1 mg/kg: read-out: Actual percentage inhibition of heart rate increase above control level at the indicated dose; for inhibition at 1 mg/kg: 1.0 mg./kg. intravenous
Experimental: The β-adrenergic blocking activity was determined in the pentobarbitalized dog as judged by the ability of the test compound to inhibit the elevation is heart rate elicited by a 0.5 mcg./kg. i.v. injection of isoproterenol.
^e AED50 = approximate intravenous dose required to cause 50%
inhibition of the heart rate increase elicited by isoproterenol in the
^h Actual percentage inhibition of heart rate increase above control
level observed at the indicated dose.

[3] = system: unanesthetized spontaneous hypertensive rat; assay: Antihypertensive activity, single oral medication in the spontaneous hypertensive rat (SH Rat); format: in vivo; conditions: for ED (40 mm Hg): Rattus norvegicus, single oral dose required to induce a 40 mm average reduction in systolic blood pressure, read-out: Antihypertensive Activity SH Rat AHD40 mg./kg. P.O.; for Actual reduction in blood pressure observed at the indicated dose: SH rat; for lower blood pressure: at 50 mg./kg.
Experimental: Antihypertensive activity was determined on the basis of the observed reduction in systolic blood pressure measured according to the method of H. Kersten et al., J. Lab. and Clin. Med. 32, 1090 (1947) following a single oral medication in the unanesthetized spontaneous hypertensive rat described by Okamato et al., Japan Circulation J. 27, 282 (1963).
^a AHD40 = single oral dose required to induce a 40 mm average
reduction in systolic blood pressure in the unanesthetized spontaneous
^f Actual reduction in blood pressure (in mm Hg) observed at the […]

[4] = system: histamine-induced bronchoconstriction in the dog; assay: Block of histamine-induced bronchoconstriction in the dog (β-adrenergic stimulant activity); format: in vivo
[5] = system: isolated rabbit ear artery; assay: Vasodilator activity, isolated rabbit ear artery perfusion pressure; conditions: Oryctolagus cuniculus, read-out: Rabbit Ear Artery vasodilation (percentage reduction in perfusion pressure); for inhibition at 10 µM: 1 × 10^-5 M; for inhibition at 20 µM: 2 × 10^-5 M; for inhibition at 50 µM: 5 × 10^-5 M
Source text: as §1
^d Vasodilation is expressed as the percentage reduction in perfusion
pressure from the control level at the indicated molar dose.

[6] = system: unanesthetized trained renal hypertensive dog; assay: Antihypertensive activity, repeated oral medication in the renal hypertensive dog; format: in vivo; conditions: for minimal effective dose: Canis lupus familiaris, minimum repeated oral daily dose for sustained lowering of blood pressure of 10% or greater, tid, read-out: Antihypertensive Activity Renal Hypertensive Dog MED10 mg./kg. tid
Source text: Antihypertensive activity was also judged on the basis of sustained reduction of blood pressure observed in the unanesthetized trained renal hypertensive dog following repeated oral medication according to the procedure described by Lape et al., Arch. Int. Pharmacodyn. 160, 342 (1966).
^b MED10 = minimum repeated oral daily dose required to effect a
sustained lowering of blood pressure of 10% or greater in the
unanesthetized trained renal hypertensive dog.
^g Actual precentage reduction in blood pressure observed at the […]

[7] = system: ouabain-induced arrhythmia in dogs; assay: Ouabain-induced arrhythmia conversion
Experimental: The latter was determined in vivo and efficacy was judged on the ability of the test compound to convert to normal rhythm the arrhythmia induced by barium ion or ouabain intoxication.
Adult mongrel dogs of either sex, after fasting for 16 to 20 hours, were anesthetized with 35 mg./kg. Na-pentobarbital i.v. and tied supine on an operating table. A patent airway was provided by inserting an endotracheal cannula, and the animal respired spontaneously. A femoral vein was double cannulated with one cannula for injection and the other as a site for ouabain infusion. The ipsilateral femoral artery was cannulated for blood pressure measurement. Na-pentobarbital supplements were given i.v. as needed.
Statham P23A blood pressure transducers were used to measure blood pressure, and electrocardiograms (lead II or V1) were taken with monopolar pin electrodes. Both parameters were printed out on a Grass polygraph. Each dog was given 36 mcg./kg. ouabain i.v. over 1 minute (the solution contained 50 mcg./ml. ouabain in isotonic saline) followed by a constant ouabain infusion (0.6 mcg./kg./min.) starting 5 minutes later. The infusion solution was prepared so that the appropriate dose per minute was delivered in 0.5 ml. […]
All ECG interval and duration measurements were made on lead II with a chart speed of 100 mm./sec. […] Blood pressure was measured using a sensitivity of 10 mm. […]

With COc1ccc(CCC(C)NCC(O)c2ccc(O)c(SC)c2)cc1 (single isomer, unassigned) [Example 13A] the ED50 [1] was 0.5 mg/kg, the ED50 ([2]; iv) was greater than 0.1 mg/kg and the inhibition at 0.1 mg/kg [2] was 14%.
With COc1ccc(CCC(C)NCC(O)c2ccc(O)c(SC)c2)cc1 (single isomer, unassigned) [Example 13B] the “Vasodilator Activity Dog-Leg Perfusion AED50” value [1] was 0.5 mg/kg and the “Adrenergic Activity Dog β-blockade AED50” value [2] was 0.1 mg/kg.
For CSc1cc(C(O)CNC(C)CCc2ccc(O)cc2)ccc1O (single isomer, unassigned) [Example 40B, 4-hydroxy-α-<{[3-(4-hydroxyphenyl)-1-methylpropyl]amino}-methyl>-3-(methylthio)benzenemethanol cyclohexanesulfamate], the ED (40 mm Hg) [3] was greater than 50 mg/kg, the “Actual reduction in blood pressure observed at the indicated dose” value (“Actual reduction” for short) ([3]; 50.0 mg./kg. P.O.) was -9 mm Hg and the ED50 ([2]; iv) was 0.1 mg/kg.
In the case of COc1ccc(CC(C)NCC(O)c2ccc(OC(C)=O)c(SC)c2)cc1 (stereo not drawn) [Example 2, 4-hydroxy-α-<{[2-(4-methoxyphenyl-1-methylethyl]amino}methyl>-3-(methylthio)benzenemethanol 4-aceetate hydrochloride], the ED50 [1] was 0.5 mg/kg, the ED (40 mm Hg) [3] was 10 mg/kg and the β-adrenergic stimulant activity [4] was “ability to block histamine-induced bronchoconstriction”. The inhibition at 10 µM [5] was 50%, the inhibition at 1 mg/kg [2] was 60% and the ED50 [2] was less than 1 mg/kg.
COc1ccc(CC(C)NCC(O)c2ccc(O)c(SC)c2)cc1 (stereo not drawn) [Example 3, 4-hydroxy-α-<{[2-(4-methoxyphenyl)-1-methylethyl]amino}methyl>-3-(methylthio)benzenemethanol acetate salt] was tested, and the ED50 [1] was 0.5 mg/kg, the ED (40 mm Hg) [3] was 20 mg/kg and the inhibition at 20 µM [5] was 56%. The ED50 [2] was 0.1 mg/kg.
COc1ccc(CCC(C)NCC(O)c2ccc(O)c(SC)c2)cc1 (stereo not drawn) [Example 5, 4-hydroxy-α-<{[3-(4-methoxyphenyl)-1-methylpropyl]amino}methyl>-3-(methylthio)benzenemethanol acetate salt] was tested, and the ED50 [1] was 0.5 mg/kg, the ED (40 mm Hg) [3] was 15 mg/kg and the lowers blood pressure ([3]; at a dose of 15 mg./kg.) was 40 mm. For the same compound, the “potency relative to the reference compounds” value ([3]; at less than one-third the dose of Reference Compounds I and II) was “twice as potent”, the minimal effective dose [6] was greater than 2.5 mg/kg and the “Actual percentage reduction in blood pressure observed at the indicated dose” value ([6]; renal hypertensive dog, 2.5 mg./kg. tid) was 0%. The inhibition at 100 µM ([5]; 1 × 10^-4 M) was 55% and the ED50 ([2]; iv) was 0.1 mg/kg.
In the case of COc1ccc(CCC(C)NCC(O)c2ccc(O)c(SC)c2)cc1 (stereo not drawn) [Example 12B, 4-hydroxy-α-<{[3-(4-methoxyphenyl)-1-methylpropyl]amino}methyl>3-(methylthio)benzenemethanol acetate salt], the inhibition at 0.1 mg/kg [2] was 45% and the “Adrenergic Activity Dog β-blockade AED50” value ([2]; acetate salt) was greater than 0.1 mg/kg.
COc1ccc(CCC(C)NCC(O)c2ccc(O)c(SC)c2)cc1 (stereo not drawn) [Example 12C, 4-hydroxy-α<{[3-(4-methoxyphenyl)-1-methylpropyl]amino}methyl>-3-(methylthio)benzenemethanol acetate salt] was tested, and the “Adrenergic Activity Dog β-blockade AED50” value ([2]; acetate salt) was roughly 0.10 mg/kg.
With COc1ccc(CCC(C)NCC(O)c2ccc(OC(=O)c3ccccc3)c(SC)c2)cc1 (stereo not drawn) [Example 15A, 4-hydroxy-α-<{[3-(4-methoxyphenyl)-1-methylpropyl]amino}methyl>-3-(methylthio)benzenemethanol 4-benzoate acetate salt] the ED (40 mm Hg) [3] was greater than 50 mg/kg and the “Actual reduction” value ([3]; 50.0 mg./kg. P.O.) was -10 mm Hg.
For CC(=O)O.CSc1cc(C(O)CNC(C)(C)Cc2ccccc2)ccc1O (stereo not drawn) [Example 20, α-{[(1,1-dimethyl-2-phenylethyl)amino]methyl}-4-hydroxy-3-(methylthio)benzenemethanol acetate salt], the ED50 [1] was 0.5 mg/kg, the ED (40 mm Hg) [3] was roughly 50 mg/kg and the inhibition at 10 µM [5] was 71%. For the same compound, the inhibition at 1 mg/kg [2] was 56% and the ED50 [2] was less than 1 mg/kg.
CSc1cc(C(O)CNC(C)Cc2ccccc2)ccc1O (stereo not drawn) [Example 22, 4-hydroxy-α-{[(1-methyl-3-phenylethyl)amino]methyl}-3-(methylthio)benzenemethanol acetate salt] showed an ED50 [1] of 0.5 mg/kg, an ED (40 mm Hg) [3] of 35 mg/kg and an inhibition at 20 µM [5] of 33%. The inhibition at 1 mg/kg [2] was 60% and the ED50 [2] was less than 1 mg/kg.
For COc1ccc(CC(C)NC(C)C(O)c2ccc(O)c(SC)c2)cc1 (stereo not drawn) [Example 24, 4-hydroxy-α-<{[2-(4-methoxyphenyl)-1-methylethyl]amino}ethyl>-3-(methylthio)benzenemethanol acetate salt], the ED (40 mm Hg) [3] was greater than 20 mg/kg and the “Actual reduction” value ([3]; 20.0 mg./kg. P.O.) was -23 mm Hg.
CC(=O)O.CSc1cc(C(O)CNC(C)(C)CCc2ccccc2)ccc1O (stereo not drawn) [Example 28, α-{[(1,1-dimethyl-3-phenylpropyl)amino]methyl}-4-hydroxy-3-(methylthio)benzenemethanol acetate salt] showed an ED50 [1] of 0.5 mg/kg, an ED (40 mm Hg) [3] of roughly 10 mg/kg and an inhibition at 50 µM [5] of 70%. For the same compound, the ED50 ([2]; iv) was less than 1 mg/kg and the inhibition at 1 mg/kg [2] was 100%.
With COc1ccc(CCC(C)(C)NCC(O)c2ccc(O)c(SC)c2)cc1 (stereo not drawn) [Example 30, α-<{[1,1-dimethyl-3-(4-methoxyphenyl)propyl]amino}methyl>-4-hydroxy-3-(methylthio)benzenemethanol acetate salt] the ED50 [1] was 0.5 mg/kg, the ED (40 mm Hg) [3] was 20 mg/kg and the minimal effective dose [6] was 0.5 mg/kg. The inhibition at 90 µM ([5]; 9 × 10^-5 M) was 50%, the ED50 ([2]; iv) was less than 1 mg/kg and the inhibition at 1 mg/kg [2] was 72%.
CSc1cc(C(O)CNC(C)CCc2ccccc2)ccc1O (stereo not drawn) [Example 32, 4-hydroxy-α-{[(1-methyl-3-phenylpropyl)amino]methyl}-3-methylthio)benzenemethanol acetate salt] showed an ED50 [1] of 0.5 mg/kg, an ED (40 mm Hg) [3] of 5 mg/kg and an inhibition at 50 µM [5] of 81%. It also gave an ED50 ([2]; iv) of 0.1 mg/kg.
For COc1ccc(CCCC(C)NCC(O)c2ccc(O)c(SC)c2)cc1 (stereo not drawn) [Example 36, 4-hydroxy-α-<{[4-(4-methoxyphenyl)1-methylbutyl]amino}methyl>-3-(methylthio)benzenemethanol acetate salt], the ED (40 mm Hg) [3] was greater than 50 mg/kg and the “Actual reduction” value ([3]; 50.0 mg./kg. P.O.) was -17 mm Hg.
In the case of COc1cc(CCNCC(O)c2ccc(O)c(SC)c2)cc(OC)c1OC (stereo not drawn) [Example 51, 4-hydroxy-3-(methylthio)-α-<{[2-(3,4,5-trimethoxyphenyl)ethylamino}methyl>benzenemethanol hydrochloride], the “toxic dose in the ouabain test” value ([7]; anesthetized dog) was 2.5×10^-5 Mg/kg and the “activity in the ouabain test” value ([7]; below 2.5×10^-5 Mg/kg.) was “inactive”.
With COc1ccc(CCC(C)NCC(O)c2ccc(SC)c(O)c2)cc1 (stereo not drawn) [Ref Cpd I, 3-hydroxy-α-<{[3-(4-methoxyphenyl)-1-methylpropyl]amino}methyl>-4-(methylthio)benzenemethanol acetate salt, reference compound] the ED (40 mm Hg) [3] was greater than 50 mg/kg, the “Actual reduction” value ([3]; 50.0 mg./kg. P.O.) was -20 mm Hg and the lower blood pressure [3] was 20 mm.
With COc1ccc(CCC(C)NCC(O)c2ccc(OC)c(SC)c2)cc1 (stereo not drawn) [Ref Cpd II, 4-methoxy-α-<{[3-(4-methoxyphenyl)-1-methylpropyl]amino}methyl>-3-(methylthio)benzenemethanol hydrochloride, reference compound] the ED (40 mm Hg) [3] was greater than 50 mg/kg, the “Actual reduction” value ([3]; 50.0 mg./kg. P.O.) was -24 mm Hg and the lower blood pressure [3] was 24 mm. It also gave an ED50 ([2]; iv) of 0.07 mg/kg.
